Reference: PubChem BioAssay AID1963846 (Molecular Pharmacology Branch, DTP, NCI, 2024)
Several values for one entry are separate records, joined by “and”; a condition that tells them apart may be missing. Equal entries are not always repeated.

Tested on: 454973-116-R2-J3-PDC complex spheroid viability
Test: Anticancer human tumor 454973-116-R2-J3-PDC patient-derived pancreatic carcinoma cell line growth inhibition [POLQ]
Conditions: for viability, T/C: stronger effect = lower value; active = viability on the fitted dose curve at most 10% of control; inactive = the rest
Protocol: Multicellular complex tumor spheroid response to Polymerase (POL) inhibitors (novobiocin, ART-558, RP6685) in combination with a variety of drugs and investigational agents in selected tumor cell lines
The POL inhibitors (novobiocin, ART-558, and RP6685) were evaluated both individually and in combination with standard of care and investigational anticancer small molecules within a complex spheroid model of solid tumors. . Complex spheroids include a stromal component modeled by human endothelial cells (HUVEC) and fibroblasts modeled by human mesenchymal stem cells (MSCs). The concentration ranges selected for each drug and investigational agent were based upon clinically achievable concentrations if the clinical Cmax of the agent was known.
Compounds. The drugs and investigational agents: novobiocin (NSC847541), ART-558 (NSC835418), RP-6685 (NSC848927), peposertib (NSC802822), ceralasertib (NSC780249), elimusertib (NSC800525), camonsertib (NSC841442), AZD-1390 (NSC803789), olaparib (NSC753686), talazoparib (NSC767125), rucaparib (NSC756644), sotorasib (NSC818433), MRTX-1133 (NSC836407), SN-38 (NSC673596), topotecan (NSC609699), epotoside (NSC141540), doxorubicin (NSC123127), gemcitabine (NSC613327), 5-fluorouracil (NSC19893), paclitaxel (NSC125973), vemurafenib (NSC761431), MSA-2 (NSC828583), SN-011 (NSC837082), adavosertib (NSC754352), prexasertib (NSC758257), carboplatin (NSC241240) and oxaliplatin (NSC266046), were obtained from the National Cancer Institute (NCI) Developmental Therapeutics Program Chemical Repository (21). The FDA-approved anticancer drug set is available from the Developmental Therapeutics Program at https://dtp.cancer.gov/organization/dscb/obtaining/. […] The stock solutions were prepared in dimethyl sulfoxide (DMSO, Sigma-Aldrich, St. Louis, MO, cat. D2650), except for the platinum compounds which were prepared in saline (Quality Biological, Gaithersburg, MD, cat. 114-055-101), at 800-fold the tested concentration and stored at -70 degrees C prior to their use. All drugs and investigational agents were tested over a range starting from a high concentration at or near the clinical Cmax and decreasing in half-log increments. If the clinical Cmax for an agent had not been determined, the highest concentration tested was 10 microM, except for SN-38, which was tested at a high concentration of 1 microM.
Cell Culture. All cells were maintained in an incubator at 37 degrees C and 5% CO2 with 95% humidity. The PDC lines were cultured according to standard operating procedures established by the NCI PDMR (https://pdmr.cancer.gov). Table 3 of the manuscript, lists the cell lines along with the number of the three cell types plated to form the mct-spheroids and media for tumor cell growth. After thawing, all PDC lines, except 997537-175-T-J1-PDC and 415267-285-R-J2-PDC, were cultured in Matrigel-coated flasks prepared with a working solution of 1X Ham's F-12 nutrient mix, without supplementation (Thermo Fisher Scientific, cat. 11765054), 100 U/mL penicillin-streptomycin (Thermo Fisher Scientific, cat. 15140122), and 2.5% Matrigel (Corning Inc., Corning, NY, cat. 354248) for the first three passages. The two PDC lines 997537-175-T-J1-PDC and 415267-285-R-J2-PDC were cultured on uncoated flasks. The 857933-349-R-J2-PDC line was cultured in 6C/Colon 1B media containing advanced DMEM/F-12 (Thermo Fisher Scientific, cat. 12634028), 10 mM HEPES (Thermo Fisher Scientific, cat. 15630080), 1X GlutaMAX supplement (Thermo Fisher Scientific, cat. 35050061), 0.1 mg/mL primocin (InvivoGen, San Diego, CA, cat. ant-pm-2), 10% defined fetal bovine serum, heat inactivated (HyClone Laboratories Inc., Logan, UT, cat. SH30070.03HI), 50% L-WRN conditioned media (ATCC, cat. CRL-3276), 1.25 mM N-Acetyl-L-cysteine (Sigma-Aldrich, cat. A9165), 10 mM nicotinamide (Sigma-Aldrich, cat. N0636), 1X B-27 supplement (Thermo Fisher Scientific, cat. 17504044), 1X N-2 supplement (Thermo Fisher Scientific, cat. […]
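Also: spheroids exposed to drugs for seven days before measurement.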
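For viability, T/C in this document: percent viability relative to DMSO vehicle control wells taken as 100%.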

C=CCn1c(=O)c2cnc(Nc3ccc(N4CCN(C)CC4)cc3)nc2n1-c1cccc(C(C)(C)O)n1
583 nM and 490 nM and 421 nM: IC50 (curve of compound)
17.3% and 10.9% and 9.18%: viability, T/C (compound 1 µM)
inactive: viability, T/C (compound 0.00316 µM) 108% and 106% and 102% | viability, T/C (compound 0.01 µM) 96.7% and 98.2% and 99.6% | viability, T/C (compound 0.0316 µM) 110% and 99.7% and 102% | viability, T/C (compound 0.1 µM) 105% and 104% and 98.3% | viability, T/C (compound 0.316 µM) 86.9% and 73.9% and 63.5%

CC(=O)O[C@H]1C(=O)[C@@]2(C)[C@H]([C@H](OC(=O)c3ccccc3)[C@]3(O)C[C@H](OC(=O)[C@H](O)[C@@H](NC(=O)c4ccccc4)c4ccccc4)C(C)=C1C3(C)C)[C@]1(OC(C)=O)CO[C@@H]1C[C@@H]2O
active: viability, T/C (compound 0.03 µM) 4.28% and 4.53% and 8.36% | viability, T/C (compound 0.0949 µM) 6.3% and 3.83% and 4.72% | viability, T/C (compound 0.3 µM) 4.7% and 3.78% and 4.01% | viability, T/C (compound 0.949 µM) 4.44% and 4.41% and 4.87% | viability, T/C (compound 3 µM) 4.64% and 4.24% and 4.62%
6.41% and 6.34% and 12.2%: viability, T/C (compound 0.00949 µM)
< 9.49 nM: IC50 (curve of compound)

O=C(Nc1ccc(O)c(NS(=O)(=O)c2ccc(F)cc2)c1)c1ccc(-c2ccccc2)cc1
> 10000 nM: IC50 (curve of compound)
inactive: viability, T/C (compound 0.0316 µM) 103% and 108% and 98.8% | viability, T/C (compound 0.1 µM) 104% and 96.5% and 103% | viability, T/C (compound 0.316 µM) 100% and 110% and 106% | viability, T/C (compound 1 µM) 94% and 101% and 106% | viability, T/C (compound 3.16 µM) 96.4% and 116% and 115% | viability, T/C (compound 10 µM) 87.7% and 89.7% and 98%

COc1ccc([C@@H](O)c2cc(-c3ncnc4cc(N5CCOCC5)ccc34)c(F)cc2Cl)nn1
inactive: viability, T/C (compound 0.0316 µM) 110% and 102% and 101% | viability, T/C (compound 0.1 µM) 102% and 96.8% and 98.7% | viability, T/C (compound 0.316 µM) 104% and 102% and 94.2% | viability, T/C (compound 1 µM) 92.9% and 83.8% and 93% | viability, T/C (compound 3.16 µM) 76% and 75.2% and 80.2% | viability, T/C (compound 10 µM) 52.7% and 56.2% and 53.7%
> 10000 nM: IC50 (curve of compound)

CCc1cc2c(N3CCc4c(cc(Cn5ccnc5)cc4-c4cn(C)nc4C(F)(F)F)C3=O)cc(C)nc2c(OC)n1
inactive: viability, T/C (compound 0.0316 µM) 110% and 99.6% and 98.9% | viability, T/C (compound 0.1 µM) 92% and 79.7% and 87.1% | viability, T/C (compound 0.316 µM) 88.2% and 81.7% and 79.3% | viability, T/C (compound 1 µM) 89.3% and 74.5% and 69.2% | viability, T/C (compound 3.16 µM) 87% and 76.7% and 72.6% | viability, T/C (compound 10 µM) 71.6% and 58.8% and 56.6%
> 10000 nM: IC50 (curve of compound)

COC1C(OC(N)=O)C(O)C(Oc2ccc3c(O)c(NC(=O)c4ccc(O)c(CC=C(C)C)c4)c(=O)oc3c2C)OC1(C)C (centres undefined)
inactive: viability, T/C (compound 0.0316 µM) 106% [middle of 13 runs] | viability, T/C (compound 0.1 µM) 111% [middle of 13 runs] | viability, T/C (compound 0.316 µM) 105% [middle of 13 runs] | viability, T/C (compound 1 µM) 102% [middle of 13 runs] | viability, T/C (compound 3.16 µM) 102% [middle of 13 runs] | viability, T/C (compound 10 µM) 109% [middle of 13 runs]
> 10000 nM: IC50 (compound alone, run of 10/31/2023)

O=c1[nH]cc(F)c(=O)[nH]1 + Cc1cccc(N(C)C(=O)C2C(O)CCN2c2nc(C)cc(C(F)(F)F)c2C#N)c1
2680 nM: IC50 (curve of first compound, second compound 0.1 µM)
inactive: viability, T/C (second compound 0.0316 µM, first compound 0.0316 µM) 99.3% | viability, T/C (second compound 0.0316 µM, first compound 0.1 µM) 104% | viability, T/C (second compound 0.0316 µM, first compound 0.316 µM) 98.1% | viability, T/C (second compound 0.0316 µM, first compound 1 µM) 104% | viability, T/C (second compound 0.0316 µM, first compound 3.16 µM) 46.3% | viability, T/C (second compound 0.0316 µM, first compound 10 µM) 30.7% | viability, T/C (second compound 0.1 µM, first compound 0.0316 µM) 109% | viability, T/C (second compound 0.1 µM, first compound 0.1 µM) 108% | viability, T/C (second compound 0.1 µM, first compound 0.316 µM) 111% | viability, T/C (second compound 0.1 µM, first compound 1 µM) 102% | viability, T/C (second compound 0.1 µM, first compound 3.16 µM) 41.1% | viability, T/C (second compound 0.1 µM, first compound 10 µM) 33.1% | viability, T/C (second compound 0.316 µM, first compound 0.0316 µM) 107% | viability, T/C (second compound 0.316 µM, first compound 0.1 µM) 115% | viability, T/C (second compound 0.316 µM, first compound 0.316 µM) 123% | viability, T/C (second compound 0.316 µM, first compound 1 µM) 96.9% | viability, T/C (second compound 0.316 µM, first compound 3.16 µM) 40.1% | viability, T/C (second compound 0.316 µM, first compound 10 µM) 37% | viability, T/C (second compound 1 µM, first compound 0.0316 µM) 119% | viability, T/C (second compound 1 µM, first compound 0.1 µM) 112% | viability, T/C (second compound 1 µM, first compound 0.316 µM) 112% | viability, T/C (second compound 1 µM, first compound 1 µM) 95% | viability, T/C (second compound 1 µM, first compound 3.16 µM) 40% | viability, T/C (second compound 1 µM, first compound 10 µM) 31.6% | viability, T/C (second compound 3.16 µM, first compound 0.0316 µM) 116% | viability, T/C (second compound 3.16 µM, first compound 0.1 µM) 118% | viability, T/C (second compound 3.16 µM, first compound 0.316 µM) 108% | viability, T/C (second compound 3.16 µM, first compound 1 µM) 93.4% | viability, T/C (second compound 3.16 µM, first compound 3.16 µM) 38.9% | viability, T/C (second compound 3.16 µM, first compound 10 µM) 32% | viability, T/C (second compound 10 µM, first compound 0.0316 µM) 116% | viability, T/C (second compound 10 µM, first compound 0.1 µM) 108% | viability, T/C (second compound 10 µM, first compound 0.316 µM) 104% | viability, T/C (second compound 10 µM, first compound 1 µM) 92.2% | viability, T/C (second compound 10 µM, first compound 3.16 µM) 39.6% | viability, T/C (second compound 10 µM, first compound 10 µM) 30.9%
2930 nM: IC50 (curve of first compound, second compound 0.0316 µM)
2560 nM: IC50 (curve of first compound, second compound 0.316 µM)
2530 nM: IC50 (curve of first compound, second compound 3.16 µM)
2570 nM: IC50 (curve of first compound, second compound 1 µM)
2540 nM: IC50 (curve of first compound, second compound 10 µM)
